Measurements reported in BigSolDB 2.1.

CC(C)CCC[C@@H](C)[C@H]1CC[C@H]2[C@@H]3CC=C4C[C@@H](O)CC[C@]4(C)[C@H]3CC[C@]12C
solubility (mole fraction)
Details	in MIBK	in acetic acid	in anisole	in ethyl acetate	in methanol	in n-heptane
283.2 K	0.0101	0.00053	0.0176	0.00593	0.00021	0.00198
293.2 K	0.0142	0.0012	0.0205	0.00952	0.00042	0.00372
303.2 K	0.0272	0.00143	0.024	0.0146	0.00073	0.00609
313.2 K	0.036	0.00255	0.0325	0.0209	0.00105	0.00863
323.2 K	0.0483	0.00382	0.0442	0.033	0.00127	0.0152
